Data on 9 compounds can be found in patent publication US20080242600A1, “Backbone Cyclized Melanocortin Stimulating Hormone (Alpha Msh) Analogs” (priority 2005, published 2008).

pIC50: −log10 of the molar value. Entries after “also recorded” stand apart in the source; their conditions may differ. *1 amine or outer side, *2 acyl side, *3 side chain or, on linkers, in order; H or OH if unused. Where a SMILES comes first, the peptide text is derived from it. Bridges are numbered along the chain shown (N, C = ends). [ ]: non-standard residue; d: D form. NGly(3-aminopropyl) = O=C(CN(CCCN[*:3])[*:1])[*:2]; N(2-Aminoethyl)Gly = O=C(CN(CCN[*:3])[*:1])[*:2]; Heptanedioyl = O=C(CCCCCC(=O)[*:2])[*:1]; Adipoyl = O=C(CCCCC(=O)[*:2])[*:1]; Glutaryl = O=C(CCCC(=O)[*:2])[*:1]; Suc = O=C(CCC(=O)[*:2])[*:1]; Nlys = NCCCCNCC(=O)O

The term pIC50 denotes the negative decadic logarithm of the IC50, by convention in mol/L. The low end stands for a large IC50, the high end for a small IC50.

For data set [1], the target named is T1, MC4R (Homo sapiens, UniProt P32245).
T1 construct: expressed in transfected cells; host or cells: CHO cells
T1 sequence (P32245 whole entry, species assumed): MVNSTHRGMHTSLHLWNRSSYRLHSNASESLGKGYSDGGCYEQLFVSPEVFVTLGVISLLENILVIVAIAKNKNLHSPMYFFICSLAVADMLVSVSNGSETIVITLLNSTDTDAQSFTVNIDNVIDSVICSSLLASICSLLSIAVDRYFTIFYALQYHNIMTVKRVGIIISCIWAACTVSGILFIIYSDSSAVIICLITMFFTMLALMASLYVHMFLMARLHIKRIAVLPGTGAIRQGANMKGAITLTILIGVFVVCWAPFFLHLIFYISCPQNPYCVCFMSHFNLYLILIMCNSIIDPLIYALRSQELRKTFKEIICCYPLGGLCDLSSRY
Briefly: Receptor binding assay (IC50 on the MC4R). An excerpt:
The analogs can be further tested in vitro for their influence on cyclic adenosine monophosphate (cAMP) levels. Intestinal permeability and metabolic stability of the analogs can be tested in vivo. The analogs can be further tested in vivo in preclinical models in order to identify the optimal mode of administration and proper dose, and to verify the safety and the efficacy of these new potential therapeutic drugs.
Transfected CHO cells are washed with binding buffer 8 and distributed into 96-well plates (approximately 40,000 cells/well). […] NDP-α-MSH and appropriate concentrations of an unlabelled ligand. After incubation, the cells are washed with 0.2 ml of ice-cold binding buffer and detached from the plates with 0.2 ml of 0.1 N NaOH. Radioactivity is counted (Wallac, Wizard automatic gamma counter) and data analyzed with a software package for radioligand binding analyses (Wan System, Umea, Sweden) by fitting it to formulas derived from the law of mass-action by the method generally referred to as computer modeling. The binding assays are performed in duplicate wells.

The nature of data set [2]: Assessment of intestinal metabolic stability in brush border membrane vesicles. The class given is in vitro ADME. The note with it: rat intestinal brush border membranes. As for the experimental part: Brush-border membrane vesicles (BBMVs) were prepared from combined duodenum, jejunum, and upper ileum by a Ca++precipitation method (PEERCE). The intestines of 5 male Wistar rats, 200-250 g, were rinsed with ice cold 0.9% Nacl and freed of mucos, the mucosa was scraped off the luminal surface with glass slides and put immediately into buffer containing […] Kcl and 10 mM Tris-HCl (pH 7.5, 4° C.) and the mixture homogenated by Ploytron (Polytron PT 1200, Kinematica AG, Switzerland). CaCl was added to a final concentration of 10 mM. The homogenate was left shaking for 30 min at 4° C. and afterwards centrifuged at 10,000 g for 10 min (centrifuge) the supernatant was then centrifuged at 48,000 g for 30 min an additional two purification steps were undertaken by suspending the pellet in 300 mM mannitol and 10 mM Hepes/Tris (pH 7.5) and centrifuge 24,000 g/hr. Purification of brush border membranes was assayed using the brush border membrane enzyme markers GGT, LAP and alkaline phosphatase. During the course of these studies, enrichment in brush border membrane enzymes varied between 13- and 18-fold.

The target in data set [3] is T1, MC4R. Briefly: Determination of receptor activation (cAMP accumulation assay). It counts as cell-based. As for the experimental part: cAMP Accumulation Assays: 48 h after transfection, CHO cells are washed once with PBS and then detached from the plate with PBS containing 0.02% EDTA (Sigma). The detached cells are harvested by centrifugation and resuspended in Hanks' balanced salt solution (Invitrogen) containing 0.5 mM IBMX, 2 mM HEPES, pH 7.5 (IBMX buffer). After incubation at 37° C. for 15 min to allow for IBMX uptake, 0.4 ml of cell suspension (5×10^5 cells/ml) is added to 0.1 ml of IBMX buffer containing various concentrations of agonists or 10 μM forskolin. The cells are subsequently incubated at 37° C. for 15 min to allow for cAMP accumulation. The activity is terminated by adding 0.5 ml of 5% trichloroacetic acid, and cAMP released from lysed cells is assayed by the cAMP ^125I scintillation proximity assay system (Amersham Biosciences).
EC50 values are calculated with a 95% confidence interval using GraphPad Prism software (using nonlinear regression analysis fitted with a sigmoidal dose-response curve with variable slope).
(cAMP levels reflect the balance of adenylyl cyclase and phosphodiesterase activity.)

The test system of a further data set is ICR:Hsd (CD-1) male mice. Briefly: Effect of orally administered BBC-1 on food consumption in normal mice. It counts as in vivo. As for the experimental part: ICR:Hsd (CD-1) male mice, 7-8 weeks old, were raised in separate cages and maintained at 23±1° C. on a 12-hr light, 12-hr dark cycle (0700-1900 hr light). Mice were allowed ad libitum access to water and standard chow pellets. Upon arrival mice were allowed to acclimate for 1 week. Following fasting for 16 hours, the animals (n=8) were subjected to a single oral gavage (PO, 5 ml/kg) of BBC1 (100 μg/ml, 1000 μg/ml) or vehicle (water). Immediately after administration, fixed food doses were added and re-weighed after 1, 2, 3, 4, 5, 8 and 24 hours.

`N=C(N)NCCC[C@@H]1NC(=O)[C@@H](Cc2ccccc2)NC(=O)[C@H](Cc2ccccc2)NC(=O)CCCCCC(=O)NCCN(CC(N)=O)C(=O)[C@H](Cc2c[nH]c3ccccc23)NC1=O` [BBC9] (F[dF]RW[N(2-Aminoethyl)Gly]-NH2; linker N-5 via Heptanedioyl): the pIC50 at MC4R [1] was 7.00.
Turning to `N=C(N)NCCC[C@@H]1NC(=O)[C@@H](Cc2ccccc2)NC(=O)[C@H](Cc2ccccc2)NC(=O)CCCCCC(=O)NCCCN(CC(N)=O)C(=O)[C@H](Cc2c[nH]c3ccccc23)NC1=O` [BBC7] (F[dF]RW[NGly(3-aminopropyl)]-NH2; linker N-5 via Heptanedioyl), the pIC50 on MC4R [1] is 7.00.
With `N=C(N)NCCC[C@@H]1NC(=O)[C@@H](Cc2ccccc2)NC(=O)[C@H](Cc2ccccc2)NC(=O)CCCCC(=O)NCCN(CC(N)=O)C(=O)[C@H](Cc2c[nH]c3ccccc23)NC1=O` [BBC10] (F[dF]RW[N(2-Aminoethyl)Gly]-NH2; linker N-5 via Adipoyl), on MC4R [1], the pIC50 was 6.92.
`N=C(N)NCCC[C@@H]1NC(=O)[C@@H](Cc2ccccc2)NC(=O)[C@H](Cc2ccccc2)NC(=O)CCCC(=O)NCCCN(CC(N)=O)C(=O)[C@H](Cc2c[nH]c3ccccc23)NC1=O` [BBC6] (F[dF]RW[NGly(3-aminopropyl)]-NH2; linker N-5 via Glutaryl) gave a pIC50 on MC4R [1] of 6.96.
In turn, `N=C(N)NCCC[C@@H]1NC(=O)[C@@H](Cc2ccccc2)NC(=O)[C@H](Cc2ccccc2)NC(=O)CCC(=O)NCCCN(CC(N)=O)C(=O)[C@H](Cc2c[nH]c3ccccc23)NC1=O` [BBC8] (F[dF]RW[NGly(3-aminopropyl)]-NH2; linker N-5 via Suc) gave a pIC50 on MC4R [1] of 7.22.
`N=C(N)NCCC[C@@H]1NC(=O)[C@@H](Cc2ccccc2)NC(=O)[C@H](Cc2ccccc2)NC(=O)CCCC(=O)NCCCCN(CC(N)=O)C(=O)[C@H](Cc2c[nH]c3ccccc23)NC1=O` [BBC12] (F[dF]RW[Nlys]-NH2; linker N-5 via Glutaryl) had a pIC50 at MC4R [1] of 7.00.
Take `N=C(N)NCCC[C@@H]1NC(=O)[C@@H](Cc2ccccc2)NC(=O)[C@H](Cc2ccccc2)NC(=O)CCCCC(=O)NCCCN(CC(N)=O)C(=O)[C@H](Cc2c[nH]c3ccccc23)NC1=O` [BBC15] (F[dF]RW[NGly(3-aminopropyl)]-NH2; linker N-5 via Adipoyl): the pIC50 at MC4R [1] was 7.22.
`N=C(N)NCCC[C@@H]1NC(=O)[C@@H](Cc2ccccc2)NC(=O)[C@H](Cc2ccccc2)NC(=O)CCCCC(=O)NCCCCN(CC(N)=O)C(=O)[C@H](Cc2c[nH]c3ccccc23)NC1=O` [BBC13] (F[dF]RW[Nlys]-NH2; linker N-5 via Adipoyl) had a pIC50 on MC4R [1] of 7.00.
In the case of `N=C(N)NCCC[C@@H]1NC(=O)[C@@H](Cc2ccccc2)NC(=O)[C@H](Cc2ccccc2)NC(=O)CCC(=O)NCCN(CC(N)=O)C(=O)[C@H](Cc2c[nH]c3ccccc23)NC1=O` [BBC1] (F[dF]RW[N(2-Aminoethyl)Gly]-NH2; linker N-5 via Suc), the intestinal metabolic stability result in data set [2] was “high and enzymatically stable”. Besides, the “MC4R functionality and selectivity” value at MC4R [3] was “highly functional and selective; also recorded: specific activation of MC4R”. Besides, the “food consumption (in words)” value with ICR:Hsd (CD-1) male mice (single oral administration, 24 hours) is listed as “decreased food consumption”. Moreover, the “reduction of food consumption” value with ICR:Hsd (CD-1) male mice (single oral administration, over a period of 24 hr) is listed as about 40%. Further, the “clinical signs post administration” value with ICR:Hsd (CD-1) male mice (single oral gavage, following 24 hours) is reported as “did not show any special clinical signs”. The same compound gave a pIC50 at MC4R [1] of 7.05.
